This is an account of results in ChEMBL document CHEMBL1137832, “P1' oxadiazole protease inhibitors with excellent activity against native and protease inhibitor-resistant HIV-1” (Bioorg Med Chem Lett, 2004).

SMILES strings stand for the structures. A value given as a limit tells only on which side of the number the result lay.

What is called IC50 is the point on the concentration scale where inhibition reaches its midpoint. Lower therefore signals greater potency.

The target in experiment [1] is T1, Human immunodeficiency virus type 1 protease (Human immunodeficiency virus 1, UniProt Q72874). In words: inhibitory concentration against HIV-1 protease from PI-resistant clinical isolate (V18).
Experiment [2] concerns the target T1, Human immunodeficiency virus type 1 protease. The experiment in a line: Inhibitory concentration against HIV-1 protease (NL4-3).
Experiment [3] relates to MT4. The experiment in a line: Concentration required to inhibit spread of native HIV-1(V18) protease obtained from PI-resistant clinical isolate in MT-4 human T-lymphoid cells. It is filed as functional. To be noted: read-out: CIC95.
Experiment [4] relates to MT4. In words: Concentration required to inhibit spread of native HIV-1(NL4-3) protease obtained from PI-resistant clinical isolate in MT-4 human T-lymphoid cells. It is filed as functional. As to conditions: read-out: CIC95.
Experiment [5] has as its system MT4. The experiment in a line: Concentration required to inhibit spread of native HIV-1(4X) protease obtained from PI-resistant clinical isolate in MT-4 human T-lymphoid cells. Format: functional. To be noted: read-out: CIC95.
In experiment [6] the test system is MT4. In words: Concentration required to inhibit spread of native HIV-1(K-60) protease obtained from PI-resistant clinical isolate in MT-4 human T-lymphoid cells. It is filed as functional. As to conditions: read-out: CIC95.
Experiment [7] concerns MT4. The experiment in a line: Concentration required to inhibit spread of native HIV-1(Q-60) protease obtained from PI-resistant clinical isolate in MT-4 human T-lymphoid cells. Format: functional. As to conditions: read-out: CIC95.

Take `CC(C)(c1ncc(-c2ccc(F)cc2)o1)N1CCN(C[C@@H](O)C[C@@H](Cc2nnco2)C(=O)N[C@H]2CCOC[C@H]2O)[C@H](C(=O)NCC(F)(F)F)C1`: the IC50 in experiment [1] stood at 0.06 nM; in experiment [2] it was 0.02 nM. Also, the IC95 is 125 nM in the experiment on MT4 [3]; 125 nM with MT4 [4]; 31 nM in the experiment with MT4 [5]; 125 nM in the experiment on MT4 [6]; 31 nM in the experiment on MT4 [7].
With `Cc1nnc(C[C@H](C[C@H](O)CN2CCN(C(C)(C)c3ncc(-c4ccc(F)cc4)o3)C[C@H]2C(=O)NCC(F)(F)F)C(=O)N[C@H]2CCOC[C@H]2O)o1`, the IC50 in experiment [1] is 0.19 nM; in experiment [2], 0.02 nM. Further, the IC95 amounted to 63 nM in the experiment with MT4 [3]; 125 nM in the experiment with MT4 [4]; 31 nM in the experiment with MT4 [5]; 125 nM with MT4 [6]; 31 nM in the experiment with MT4 [7].
As to `Cc1nnc(C[C@H](C[C@H](O)CN2CCN(C(C)(C)c3ncc(-c4ccc(Cl)cc4)o3)C[C@H]2C(=O)NCC(F)(F)F)C(=O)N[C@H]2CCOC[C@H]2O)o1`, the IC50 in experiment [1] stood at 0.06 nM; in experiment [2] it was 0.01 nM. Also, the IC95 in the experiment with MT4 [3] is 63 nM; in the experiment with MT4 [4], 250 nM; in the experiment with MT4 [5] it was 16 nM; with MT4 [6] it was 31 nM; with MT4 [7] it was at most 8 nM.
Turning to `CC(C)(c1ncc(-c2ccc(Cl)cc2)o1)N1CCN(C[C@@H](O)C[C@@H](Cc2nnco2)C(=O)N[C@H]2CCOC[C@H]2O)[C@H](C(=O)NCC(F)(F)F)C1`, the IC50 was 0.04 nM in experiment [1] and below 0.01 nM in experiment [2]. In addition, the IC95 with MT4 [3] is 63 nM; with MT4 [4] it was 125 nM; in the experiment with MT4 [5] it was 31 nM; with MT4 [6] it was 63 nM; in the experiment with MT4 [7], 31 nM.
In turn, `Cc1nnc(C[C@H](C[C@H](O)CN2CCN(Cc3ccc(-c4ccc(Cl)cc4)o3)C[C@H]2C(=O)NCC(F)(F)F)C(=O)N[C@H]2CCOC[C@H]2O)o1` yielded an IC50 in experiment [2] below 0.01 nM. The IC95 is 63 nM in the experiment with MT4 [3]; at most 63 nM in the experiment on MT4 [4]; 31 nM with MT4 [5]; 31 nM in the experiment on MT4 [6]; 31 nM with MT4 [7].
In experiment [2], `CC(C)(c1ncc(-c2ccc(F)cc2)o1)N1CCN(C[C@@H](O)C[C@@H](Cc2nnc(-c3ccccc3)o2)C(=O)N[C@H]2CCOC[C@H]2O)[C@H](C(=O)NCC(F)(F)F)C1` registered an IC50 of 0.02 nM. Besides, the IC95 in the experiment on MT4 [3] was 63 nM; with MT4 [4], at most 8 nM; with MT4 [5], 16 nM; in the experiment with MT4 [6] it was at most 8 nM; in the experiment on MT4 [7] it was 16 nM.
In the case of `CC(C)(c1ncc(-c2ccc(Cl)cc2)o1)N1CCN(C[C@@H](O)C[C@@H](Cc2nnc(-c3ccccc3)o2)C(=O)N[C@H]2CCOC[C@H]2O)[C@H](C(=O)NCC(F)(F)F)C1`, the IC50 in experiment [1] was 0.18 nM; in experiment [2] it was below 0.01 nM. For the same molecule, the IC95 in the experiment on MT4 [3] is 125 nM; with MT4 [4] it was at most 8 nM; in the experiment with MT4 [5], 16 nM; in the experiment on MT4 [6] it was at most 8 nM; in the experiment with MT4 [7] it was 16 nM.
In the case of `CCCc1nnc(C[C@H](C[C@H](O)CN2CCN(C(C)(C)c3ncc(-c4ccc(Cl)cc4)o3)C[C@H]2C(=O)NCC(F)(F)F)C(=O)N[C@H]2CCOC[C@H]2O)o1`, the IC50 in experiment [1] is 0.18 nM; in experiment [2] it was below 0.01 nM. Moreover, the IC95 was 63 nM with MT4 [3]; at most 8 nM in the experiment on MT4 [4]; at most 8 nM in the experiment on MT4 [5]; 16 nM in the experiment on MT4 [6]; at most 8 nM with MT4 [7].
On to `CCCc1nnc(C[C@H](C[C@H](O)CN2CCN(C(C)(C)c3ncc(-c4cncc(OC)c4)o3)C[C@H]2C(=O)NCC(F)(F)F)C(=O)N[C@H]2CCOC[C@H]2O)o1`, for which, in experiment [2], the IC50 amounted to 0.32 nM. Moreover, the IC95 in the experiment on MT4 [3] was below 1000 nM; with MT4 [4], 500 nM; in the experiment with MT4 [5], 500 nM; in the experiment with MT4 [6] it was 500 nM; with MT4 [7], 500 nM.
In experiment [2], `COc1cncc(-c2cnc(C(C)(C)N3CCN(C[C@@H](O)C[C@@H](Cc4nnc(-c5ccccc5)o4)C(=O)N[C@H]4CCOC[C@H]4O)[C@H](C(=O)NCC(F)(F)F)C3)o2)c1` registered an IC50 of 0.48 nM. Moreover, the IC95 was below 1000 nM in the experiment on MT4 [3]; 125 nM in the experiment on MT4 [4]; 250 nM in the experiment with MT4 [5]; 250 nM in the experiment on MT4 [6]; 500 nM with MT4 [7].
As for `CC(C)(C)NC(=O)[C@@H]1CN(Cc2cccnc2)CCN1C[C@@H](O)C[C@@H](Cc1ccccc1)C(=O)N[C@H]1c2ccccc2C[C@H]1O`, the IC95 was above 1000 nM with MT4 [3]; 50 nM in the experiment with MT4 [4]; 400 nM in the experiment on MT4 [5]; above 1000 nM in the experiment with MT4 [6]; above 1000 nM in the experiment on MT4 [7].
On to `CCCc1nnc(C[C@H](C[C@H](O)CN2CCN(Cc3ccc(-c4ccc(Cl)cc4)o3)C[C@H]2C(=O)NCC(F)(F)F)C(=O)N[C@H]2CCOC[C@H]2O)o1`, for which the half-maximal inhibitory concentration (IC50) in experiment [2] was below 0.01 nM. The IC95 in the experiment with MT4 [3] was 125 nM; with MT4 [4], at most 8 nM; with MT4 [5] it was 31 nM; with MT4 [6], at most 8 nM; with MT4 [7], 16 nM.
Consider `O=C(N[C@H]1CCOC[C@H]1O)[C@H](Cc1nnc(-c2ccccc2)o1)C[C@H](O)CN1CCN(Cc2ccc(-c3ccc(Cl)cc3)o2)C[C@H]1C(=O)NCC(F)(F)F`, for which the IC50 in experiment [2] turned out to be 0.01 nM. Further, the IC95 is 250 nM in the experiment on MT4 [3]; 15.6 nM in the experiment with MT4 [4]; 125 nM with MT4 [5]; at most 8 nM in the experiment on MT4 [6]; 63 nM in the experiment with MT4 [7].
Consider `COc1cncc(-c2cnc(C(C)(C)N3CCN(C[C@@H](O)C[C@@H](Cc4nnco4)C(=O)N[C@H]4CCOC[C@H]4O)[C@H](C(=O)NCC(F)(F)F)C3)o2)c1`, for which the concentration for half-maximal inhibition (IC50) in experiment [1] was determined as 7.4 nM; in experiment [2], 0.24 nM.
For the molecule `O=C(N[C@H]1CCOC[C@H]1O)[C@H](Cc1nnco1)C[C@H](O)CN1CCN(Cc2ccc(-c3ccc(Cl)cc3)o2)C[C@H]1C(=O)NCC(F)(F)F`, the IC50 in experiment [1] came out at 0.09 nM; in experiment [2], 0.01 nM. Moreover, the IC95 amounted to 125 nM in the experiment on MT4 [3]; 63 nM in the experiment with MT4 [4]; 31 nM in the experiment with MT4 [5]; 63 nM in the experiment with MT4 [6]; 31 nM in the experiment with MT4 [7].
On to `CCCc1nnc(C[C@H](C[C@H](O)CN2CCN(C(C)(C)c3ncc(-c4ccc(F)cc4)o3)C[C@H]2C(=O)NCC(F)(F)F)C(=O)N[C@H]2CCOC[C@H]2O)o1`, for which the results for the IC50 in experiment [1] and in experiment [2] were 0.19 nM and 0.01 nM, respectively. In addition, the IC95 was 63 nM in the experiment with MT4 [3]; 16 nM in the experiment with MT4 [4]; 16 nM in the experiment on MT4 [5]; 16 nM with MT4 [6]; at most 8 nM in the experiment with MT4 [7].
`COc1cncc(-c2cnc(C(C)(C)N3CCN(C[C@@H](O)C[C@@H](Cc4nnc(C)o4)C(=O)N[C@H]4CCOC[C@H]4O)[C@H](C(=O)NCC(F)(F)F)C3)o2)c1`: the IC50 in experiment [1] stood at 15 nM; in experiment [2], 0.4 nM. Moreover, the IC95 in the experiment with MT4 [3], in the experiment with MT4 [4], in the experiment with MT4 [5], in the experiment with MT4 [6] and in the experiment with MT4 [7] was above 1000 nM each time.
